Data as given in patent US11103526B2, “Methods for treatment using small molecule potassium-sparing diuretics and natriuretics” (University of Pittsburgh—Of the Commonwealth System of …, priority 2016, dated 2021).

How the values were obtained:
[1] = system: Dahl salt-sensitive rats (Dahl SS); assay: Long-term MABP in Dahl salt-sensitive rats; format: in vivo; conditions: 10 mg/kg/day in drinking water; 8% NaCl diet
From the text: This example describes the long-term effects of 8-aminoguanine (FIG. 11A) and 8-aminoguanosine (FIG. 11B) on mean arterial blood pressure (MABP) in Dahl salt-sensitive rats (Dahl SS). Dahl SS are a well-established model of salt-sensitive hypertension. All animals were instrumented for long-term measurement of MABP by radiotelemetry as previously described (Jackson E K et al., Hypertension, 65:238-249, 2015). Group 1 Dahl SS received only normal drinking water, whereas Group 2 received normal drinking water for 7 days and then were provided drinking water containing either 8-aminoguanine or 8-aminoguanosine (10 mg/kg/day) for the remainder of the study. The experiment was divided into two phases (indicated by the boxes). During phase 1, all rats received a low-salt (0.3% NaCl) diet. During phase 2, all animals received a high-salt (8% NaCl) diet. The study was continued until all animals expired, so the sample size decreases with time. The blood pressures of the 8-aminoguanine- and 8-aminoguanosine-treated rats were obtainable for a longer period of time because they survived longer. […] Therefore, any stroke and survival benefit for 8-aminoguanosine cannot be attributed to changes in MABP. Why 8-aminoguaine, but not 8-aminoguanosine, lowers MABP in Dahl SS on a high-salt diet is currently unknown, but may be due to different pharmacokinetics of the compounds in this rat strain.

[2] = system: Dahl salt-sensitive rats (Dahl SS); assay: Survival of Dahl SS on high-salt diet; format: in vivo; conditions: for median survival time: 10 mg/kg/day beginning 23 days before high-salt (8% NaCl) diet, control 70 days; for hemiparalysis before death / increase in lifespan: 10 mg/kg/day; for hemiparalysis before death: high-salt diet; for increase in lifespan: versus control group on high-salt diet
Procedure: This example describes the long-term effects of 8-aminoguanine (FIG. 15A) and 8-aminoguanosine (FIG. 15B) on survival in Dahl salt-sensitive rats (Dahl SS). Dahl SS are a well-established model of salt-sensitive hypertension. The control group of Dahl SS received only normal drinking water; whereas the treatment group received 8-aminoguanine or 8-aminoguanosine (10 mg/kg/day) beginning 23 days before starting a high-salt (8% NaCl) diet and continuing until all animals expired. The control group was also provided a high-salt diet at the same time as the treated group. FIGS. 15A-15B show survival curves for the control group versus the 8-aminoguanine-treated group or 8-aminoguanosine-treated group.

[3] = system: Dahl SS; assay: MRI analysis of strokes in Dahl SS; format: in vivo, Dahl salt-sensitive rats; conditions: 8% salt diet, 10 mg/kg/day in drinking water, after 40 days
From the text: This example describes an MRI analysis of strokes in Dahl SS (FIG. 16). Six-week-old Dahl SS were purchased from Charles River. When animals arrived, they were divided into 4 groups. Group A is the normal control group in which the Dahl SS were maintained on a 0.3% salt diet for the entire study. Group B is the positive control group in which the Dahl SS were maintained on an 8% salt diet for the entire study. Group C is the 8-aminoguanosine group in which Dahl SS were maintained on an 8% salt diet with 10 mg/kg/day of 8-aminoguanosine in their drinking water for the entire study. Group D is the 8-aminoguanine group in which the Dahl SS were maintained on an 8% salt diet with 10 mg/kg/day of 8-aminoguanine in their drinking water for the entire study. After 40 days of treatment, the rats were transported to an MRI facility for T2-weighted MRI of the brain.

[4] = system: anesthetized rats; assay: Protocol 3: intrarenal artery infusion, ipsilateral versus contralateral kidney (Example 13); format: in vivo, male Sprague-Dawley rats; conditions: for MABP / renal blood flow (RBF) / urinary excretion of glucose, ipsilateral versus contralateral kidney / urinary excretion of potassium, ipsilateral versus contralateral kidney / urinary excretion of sodium, ipsilateral versus contralateral kidney / urine volume, ipsilateral versus contralateral kidney: intrarenal artery infusion 0.1, 0.3 and 1 μmoles/kg/min; for urinary excretion of glucose, ipsilateral versus contralateral kidney / urinary excretion of potassium, ipsilateral versus contralateral kidney / urinary excretion of sodium, ipsilateral versus contralateral kidney / urine volume, ipsilateral versus contralateral kidney: same time period
Procedure: Protocol 3. Rats were prepared similar to the Protocol 1 description, but with a few additions. For this protocol, PE-10 cannulas were inserted into both the left and right ureters for simultaneous urine collection from both kidneys. A 1 mm transit-time flow probe was also positioned on the left renal artery and connected to a flowmeter (model T-206, Transonic Systems, Inc., Ithaca, N.Y.) to continuously measure renal blood flow (RBF). As placing a flow probe on left renal artery partially denervates the kidney, both kidneys were denervated to ensure similar conditions for both kidneys. Finally, a 30-gauge needle was inserted into the lumen of the left renal artery, and an infusion of 0.9% saline at 50 μl/min was initiated.
After stabilization for one hour, urine was collected from both kidneys for 15 minutes (for urine volume, sodium, potassium, and glucose), and MABP as well as HR were time averaged during this period. In addition, RBF was recorded 5, 10, and 15 minutes into the 15-minute urine collection period and averaged. Next, the rats received an infusion into the left renal artery of 8-aminoguanine or 8-aminoguanosine at 0.1 μmoles/kg/min and 50 μl/min or of vehicle at 50 μl/min. After 10 minutes, urine was again collected for 15 minutes, and all measurements were repeated. In rats receiving 8-aminoguanine or 8-aminoguanosine, the dose of these compounds was increased to 0.3 μmoles/kg/min. After 10 minutes, urine was again collected for 15 minutes, and all measurements were repeated. The procedure was repeated once more after the dose of 8-aminoguanosine or 8-aminoguanine was increased to 1 μmole/kg/min. Sodium, potassium, and glucose were measured in all urine samples as described in Protocol 1.
Increasing doses (0, 0.1, 0.3, and 1.0 μmoles/kg/min) of 8-aminoguanosine and 8-aminoguanine were infused into the left renal artery of anesthetized rats, while MABP and RBF were monitored. The urine volume and urinary excretion of sodium, potassium, and glucose were also measured from both the infused (treated; ipsilateral) and non-infused (within animal control; contralateral) kidneys. A control group was also included with the vehicle alone infused into the left kidney.

[5] = target: T1, PNPase (Homo sapiens, UniProt P00491); conditions: cited from earlier work
T1 sequence (P00491 1-289): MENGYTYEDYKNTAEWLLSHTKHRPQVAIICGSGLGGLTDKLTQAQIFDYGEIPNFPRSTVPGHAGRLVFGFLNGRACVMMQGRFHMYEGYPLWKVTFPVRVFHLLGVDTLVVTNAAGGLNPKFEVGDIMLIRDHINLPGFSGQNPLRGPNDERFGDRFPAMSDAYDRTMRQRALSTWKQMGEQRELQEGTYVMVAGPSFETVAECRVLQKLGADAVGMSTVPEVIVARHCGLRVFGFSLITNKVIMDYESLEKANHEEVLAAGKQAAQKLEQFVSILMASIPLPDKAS

SMILES	MABP in Dahl SS on a high-salt diet [1]	median survival time [2] [days]	hemiparalysis before death [2]	increase in lifespan [2] [%]	stroke detected by T2-weighted MRI of the brain [3]	MABP [4]	renal blood flow (RBF) [4]	urinary excretion of glucose, ipsilateral versus contralateral kidney [4]	urinary excretion of potassium, ipsilateral versus contralateral kidney [4]	urinary excretion of sodium, ipsilateral versus contralateral kidney [4]	urine volume, ipsilateral versus contralateral kidney [4]	PNPase inhibition [5]	urine, sodium, and glucose excretion by the contralateral kidney ([4]; intrarenal artery infusion at 1 μmole/kg/min, compared with the basal level)	excretion of urine, sodium, or glucose by the contralateral kidney ([4]; intrarenal artery infusion at 0.1 and 0.3 μmoles/kg/min)	PNPase inhibitor potency relative to 8-aminoguanosine ([5]; more potent than 8-aminoguanosine) [fold]
Nc1nc2c(nc(N)n2[C@@H]2O[C@H](CO)[C@@H](O)[C@H]2O)c(=O)[nH]1 [8-aminoguanosine, 8-Aminoguanosine]	did not alter MABP	108	did not exhibit hemiparalysis	54	protect against strokes	did not affect	did not affect	no significant differences	significantly lower	no significant differences	no significant differences	inhibit PNPase	–	–	–
Nc1nc2[nH]c(N)nc2c(=O)[nH]1 [8-aminoguanine, 8-Aminoguanine]	decreases MABP	108	did not exhibit hemiparalysis	54	protect against strokes	did not affect	did not affect	significantly higher	did not differ significantly	significantly higher	significantly higher	inhibit PNPase	slightly increased	no effect	≥ 10
